The source of these data is paper PMC11898053, “Structure-Based Identification of Non-covalent Prolyl Oligopeptidase 80 Inhibitors Targeting Trypanosoma cruzi Cell Entry” (Journal of Chemical Information and Modeling, 2025).

One data set has as its target recombinant POPTc80 (Trypanosoma cruzi, UniProt Q4E132). Description: POPTc80 enzyme inhibition and kinetic assay (Suc-GPLGP-AMC fluorogenic substrate). Type of data set: biochemical. How it is done: The enzyme activity was assessed using the fluorogenic substrate Suc-GPLGP-AMC previously described by Santana et al.[14] A total of 20 ng of pure recombinant POPTc80 was incubated with 20 μM Suc-GPLGP-AMC in a 25 mM HEPES buffer containing 5 mM DTT at pH 7.5. The release of AMC was monitored over a period of 20 min by measuring its emission at 460 nm, following excitation at 355 nm, using a 96-well microplate fluorescence reader (M5, Molecular Devices). The IC50 values were obtained by a series of at least 9 points from 200 to 0.01 μM of the compound, plus the control. The data were subjected to a four-parameter logistic (4 PL) nonlinear regression model using GraphPad Prism 8 software to calculate the IC50. […] Active enzyme concentration was determined by titration with a chloromethyl ketone irreversible inhibitor of POPTc80.[13] All kinetic parameters were determined by nonlinear regression employing the GraphPad Prism enzyme kinetics module and Hanes-Woolf plots.[64]

A short description of data set [1]: Cytotoxicity assay (resazurin). It counts as cell-based. The following applies: rat, L6 cells, pH 7.4; 72 h incubation. How it is done: L6 cells were cultured in 96-well plates at a density of 1 × 10^4 cells/well in 100 μL of RPMI 1640 medium supplemented with 10% heat-inactivated fetal bovine serum (FBS) and 25 mM HEPES pH 7.4, maintained at 37 °C, under a 5% CO2 atmosphere. After 24h, the compounds were diluted, starting at a concentration of 200 μM, in 100 μL of complete culture medium per well. Subsequently, 100 μL of the diluted compounds were added to the seeded cells. After 72 h of incubation, Resazurin solution (Sigma) was added to a final concentration of 20 μM and incubated for another 4h at 37 °C. Fluorescence was then measured at 570 nm (excitation) and 595 nm (emission) using a SpectraMax M5 microplate reader (Molecular Devices, Sunnyvale, CA, USA). The cytotoxic concentrations causing 50% inhibition of cell growth (CC50) were determined from data obtained in two independent experiments and calculated similarly to the EC50, as described above.
In general terms: The colour change of resazurin is a common sign of viable cells or microbes.

Data set [2] deals with T. cruzi strain Y trypomastigotes. Description: Host cell infection inhibition assay (trypomastigote entry into L6 cells). It counts as cell-based, Trypanosoma cruzi. The following applies: 1 h preincubation, 3 h infection, 72 h culture. The procedure: The assay was performed as previously described by Grellier et al.,[15] with slight modifications. Briefly, L6 cells were seeded in flasks containing RPMI medium supplemented with 5% fetal bovine serum and 1% penicillin/streptomycin (Gibco 15140122) and incubated at 37 °C in a 5% CO2 atmosphere. Trypomastigotes of T. cruzi strain Y were preincubated for 1 h at 37 °C in a culture medium containing different concentrations of inhibitors (0–200 μM, five points). Subsequently, they were added to L6 cell cultures that had been previously grown for 24h in 96-well plates (1000 cells/well) at a trypomastigote-to-host cell ratio of 30:1. After 3 h incubation at 37 °C, the wells were washed three times with inhibitor-free culture medium, and the cells were maintained for 72 h without inhibitors before fixation and staining with panoptic stain. The percentage of infected cells was determined by counting at least 200 host cells under 400-fold magnification. The inhibition of host cell invasion was calculated by comparing the percentage of infected cells in treated wells to that in untreated control wells. The concentration required to inhibit 50% of invasion (EC50) was determined using a nonlinear regression model applied to dose–response curves in GraphPad Prism v.8.

The next data set concerns POPTc80. The settings on record: cited from earlier work.
Another data set deals with T. cruzi. Also noted: method as in PMID 11598112. The settings on record: phenotypic data; cited from earlier work.
Setting [3] is: 20 μM Suc-GPLGP-AMC, pH 7.5, means ± SD of three replications, read-out: POPTc80 IC50.
Setting [4] is: Trypanosoma cruzi, L6, inhibition of host cell invasion.
Setting [5] is: inhibition of host cell invasion.
Where [6] appears, read: four compound and five substrate concentrations, means ± SD of three replications, read-out: POPTc80 Ki.

Structures are written as SMILES. Like-named read-outs stand apart in the source and are kept apart here.

recombinant POPTc80, sequence (Q4E132 entry or part of it): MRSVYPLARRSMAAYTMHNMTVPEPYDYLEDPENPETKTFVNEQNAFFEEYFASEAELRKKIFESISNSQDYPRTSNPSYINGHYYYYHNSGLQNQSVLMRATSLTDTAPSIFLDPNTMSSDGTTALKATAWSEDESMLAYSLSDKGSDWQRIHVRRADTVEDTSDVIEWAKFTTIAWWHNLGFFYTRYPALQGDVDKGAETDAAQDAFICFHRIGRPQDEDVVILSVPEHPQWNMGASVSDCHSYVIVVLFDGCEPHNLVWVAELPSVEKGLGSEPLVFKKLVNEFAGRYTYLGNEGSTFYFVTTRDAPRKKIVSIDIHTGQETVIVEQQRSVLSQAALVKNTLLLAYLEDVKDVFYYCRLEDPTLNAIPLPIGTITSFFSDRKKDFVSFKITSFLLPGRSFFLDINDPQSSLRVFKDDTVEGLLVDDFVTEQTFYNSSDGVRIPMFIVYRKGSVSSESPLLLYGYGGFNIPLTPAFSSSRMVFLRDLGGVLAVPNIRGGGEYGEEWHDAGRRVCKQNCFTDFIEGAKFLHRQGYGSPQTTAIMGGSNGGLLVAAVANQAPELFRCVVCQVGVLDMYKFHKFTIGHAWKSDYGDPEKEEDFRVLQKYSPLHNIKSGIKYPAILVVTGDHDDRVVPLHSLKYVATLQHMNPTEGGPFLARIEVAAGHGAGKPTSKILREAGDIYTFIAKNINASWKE

Usually IC50 stands for the concentration at which inhibition is half-maximal. In the case of `O=C(NCCc1cnn(-c2ccccc2)c1)C1CCCCN1C(=O)C1CC1` (stereo not drawn) [LC-39], on recombinant POPTc80 (setting [3]), the IC50 was > 20 µM.

For the compound `O=C(NCCCc1nc2cc(Cl)ccc2[nH]1)C1CCCCN1C(=O)C1CC1` (stereo not drawn) [LC-40], the IC50 at recombinant POPTc80 (setting [3]) was > 20 µM.

As to `O=C(NCCc1nccs1)C1CCCCN1C(=O)C1CC1` (stereo not drawn) [LC-41], the half-inhibitory concentration (IC50) at recombinant POPTc80 (setting [3]) is > 20 µM.

On to `O=C(NCCc1nc2cc(F)ccc2[nH]1)C1CCCCN1C(=O)C1CC1` (stereo not drawn) [LC-42], for which, at recombinant POPTc80 (setting [3]), the IC50 is > 20 µM.

Usually CC50 stands for the concentration at which the toxic effect on the cells reaches its halfway point. Higher therefore signals lower toxicity to the cells. For orientation: EC50 means the midpoint of the concentration-response curve. One may read the Ki as the equilibrium dissociation constant of an inhibitor or competing ligand from its target. `O=C(NCCOc1cccc2cccnc12)C1CCCCC1C(=O)N1CCCC1` (stereo not drawn) [LC-44]: in data set [1], the CC50 at 72 h was > 200 µM. Also, the values for the EC50 in data set [2] (setting [4]) and in data set [2] (setting [5]) were 92.5 µM and 92.4 ± 3.74 µM, respectively. Further, at recombinant POPTc80, the “POPTc80 LE (ligand efficiency)” value is recorded as 0.33 kcal/mol per heavy atoms. Also, the IC50 on recombinant POPTc80 (setting [3]) worked out at 0.64 ± 0.1 µM. The Ki at recombinant POPTc80 (setting [6]) was determined as 0.175 ± 0.031 µM.

As for `O=C(NCCc1cscn1)C1CCCCC1C(=O)N1CCCC1` (stereo not drawn) [LC-45], the CC50 at 72 h in data set [1] is > 200 µM. The same compound returned an EC50 in data set [2] (setting [4]) of 46.7 ± 3.55 µM. The “POPTc80 LE (ligand efficiency)” value at recombinant POPTc80 was found to be 0.44 kcal/mol per heavy atoms. Also, the IC50 on recombinant POPTc80 (setting [3]) amounted to 0.23 ± 0.08 µM. Also, the inhibition constant (Ki) on recombinant POPTc80 (setting [6]) is 0.054 ± 0.006 µM.

In the case of `O=C(NCCCc1ccccn1)C1CCCCC1C(=O)N1CCCC1` (stereo not drawn) [LC-46], the cytotoxic concentration (CC50) at 72 h in data set [1] is > 200 µM. Further, in data set [2] (setting [4]), the half-maximal effective concentration (EC50) came out at 46.6 ± 20.8 µM. Further, the “POPTc80 LE (ligand efficiency)” value on recombinant POPTc80 was determined as 0.35 kcal/mol per heavy atoms. Further, the 50% inhibitory concentration (IC50) at recombinant POPTc80 (setting [3]) was found to be 0.4 ± 0.24 µM. The Ki on recombinant POPTc80 (setting [6]) stood at 0.513 ± 0.218 µM.

`Cc1nc2ccc(CNC(=O)C3CCCCC3C(=O)N3CCCC3)cc2[nH]1` (stereo not drawn) [LC-47]: the “POPTc80 LE (ligand efficiency)” value at recombinant POPTc80 is reported as 0.30 kcal/mol per heavy atoms. The IC50 at recombinant POPTc80 (read-out: POPTc80 IC50, 20 μM Suc-GPLGP-AMC, pH 7.5, means ± SD of three replications) was found to be 1.21 ± 0.32 µM. For the same compound, the inhibitory constant (Ki) on recombinant POPTc80 (read-out: POPTc80 Ki, four compound and five substrate concentrations, means ± SD of three replications) was 1.99 ± 0.26 µM.

For the compound `O=C(NCCc1cnccn1)C1CCCCC1C(=O)N1CCCC1` (stereo not drawn) [LC-48], the IC50 on recombinant POPTc80 (setting [3]) is 0.95 ± 0.1 µM.

In the case of `Cc1csc(SCC(=O)N2CCCC2C(=O)N2CCOCC2)n1` (stereo not drawn) [LC-49], the IC50 at recombinant POPTc80 (setting [3]) is > 20 µM.

Take `O=C(C1CCCN1C(=O)NCc1cc2ccccc2s1)N1CCOCC1` (stereo not drawn) [LC-50]: the CC50 at 72 h in data set [1] is > 200 µM. The same compound showed an EC50 in data set [2] (setting [4]) of 80.2 ± 5.27 µM. Moreover, at recombinant POPTc80, the IC50 was 0.59 ± 0.19 µM, the Ki stood at 0.44 ± 0.09 µM and the “POPTc80 LE (ligand efficiency)” value worked out at 0.31 kcal/mol per heavy atoms.

As for `Cn1c(CNC(=O)C2CCCCC2C(=O)N2CCCC2)nc2ccccc21` (stereo not drawn) [LC-53], the half-maximal cytotoxic concentration (CC50) at 72 h in data set [1] was > 200 µM. In data set [2] (setting [4]), this compound returned an EC50 of 24.9 ± 3.45 µM. Besides, the “POPTc80 LE (ligand efficiency)” value at recombinant POPTc80 worked out at 0.35 kcal/mol per heavy atoms. Further, the IC50 at recombinant POPTc80 (setting [3]) was 0.27 ± 0.07 µM. For the same compound, at recombinant POPTc80 (setting [6]), the Ki came out at 0.158 ± 0.044 µM.

`Cc1cccc(NC(=O)CC(=O)N2CCCC2C(=O)N2CCOCC2)c1` (stereo not drawn) [LC-54]: the half-inhibitory concentration (IC50) at recombinant POPTc80 (setting [3]) was > 20 µM.

Turning to `O=C(C1CCCN1C(=O)CCCc1ccc(Cl)cc1)N1CCOCC1` (stereo not drawn) [LC-55], the cytotoxic concentration (CC50) at 72 h in data set [1] is > 200 µM. Moreover, the values for the EC50 in data set [2] (setting [4]) and in data set [2] (setting [5]) were 16.2 µM and 18.6 ± 3.79 µM, respectively. In addition, the “POPTc80 LE (ligand efficiency)” value at recombinant POPTc80 is 0.35 kcal/mol per heavy atoms. The IC50 at recombinant POPTc80 (setting [3]) came to 0.44 ± 0.08 µM. In addition, the inhibition constant Ki at recombinant POPTc80 (setting [6]) stood at 0.83 ± 0.11 µM.

With `Cc1nn(C)c(C)c1CCC(=O)N1CCCC1C(=O)N1CCCCC1` (stereo not drawn) [LC-56], on recombinant POPTc80 (setting [3]), the half-inhibitory concentration (IC50) is > 20 µM.

For `O=C(C1CCCN1C(=O)Cn1sc2ccccc2c1=O)N1CCCCC1` (stereo not drawn) [LC-57], the half-inhibitory concentration (IC50) on recombinant POPTc80 (setting [3]) was > 20 µM.

Regarding `COC(OC)C1CCCN1C(=O)C1CCCN1C(=O)OCc1ccccc1` (stereo not drawn) [ZPPD, Z-P-prolinal dimethylacetal], the “POPTc80 LE (ligand efficiency)” value at recombinant POPTc80 worked out at 0.31 kcal/mol per heavy atoms. For the same compound, in the data set with POPTc80, the IC50 is 6.7 µM and the inhibition constant Ki was 1.12 ± 0.12 µM. Further, the EC50 in the data set with T. cruzi is 250 µM.
